Results published in article PMC4884629 (Toxicology and applied pharmacology, 2013).

Target: HERG potassium channel (Homo sapiens, UniProt Q12809)
Experiment: whole-cell patch clamp, HERG tail current in CHO cells
Type: cell-based

HERG potassium channel, sequence (Q12809 whole entry): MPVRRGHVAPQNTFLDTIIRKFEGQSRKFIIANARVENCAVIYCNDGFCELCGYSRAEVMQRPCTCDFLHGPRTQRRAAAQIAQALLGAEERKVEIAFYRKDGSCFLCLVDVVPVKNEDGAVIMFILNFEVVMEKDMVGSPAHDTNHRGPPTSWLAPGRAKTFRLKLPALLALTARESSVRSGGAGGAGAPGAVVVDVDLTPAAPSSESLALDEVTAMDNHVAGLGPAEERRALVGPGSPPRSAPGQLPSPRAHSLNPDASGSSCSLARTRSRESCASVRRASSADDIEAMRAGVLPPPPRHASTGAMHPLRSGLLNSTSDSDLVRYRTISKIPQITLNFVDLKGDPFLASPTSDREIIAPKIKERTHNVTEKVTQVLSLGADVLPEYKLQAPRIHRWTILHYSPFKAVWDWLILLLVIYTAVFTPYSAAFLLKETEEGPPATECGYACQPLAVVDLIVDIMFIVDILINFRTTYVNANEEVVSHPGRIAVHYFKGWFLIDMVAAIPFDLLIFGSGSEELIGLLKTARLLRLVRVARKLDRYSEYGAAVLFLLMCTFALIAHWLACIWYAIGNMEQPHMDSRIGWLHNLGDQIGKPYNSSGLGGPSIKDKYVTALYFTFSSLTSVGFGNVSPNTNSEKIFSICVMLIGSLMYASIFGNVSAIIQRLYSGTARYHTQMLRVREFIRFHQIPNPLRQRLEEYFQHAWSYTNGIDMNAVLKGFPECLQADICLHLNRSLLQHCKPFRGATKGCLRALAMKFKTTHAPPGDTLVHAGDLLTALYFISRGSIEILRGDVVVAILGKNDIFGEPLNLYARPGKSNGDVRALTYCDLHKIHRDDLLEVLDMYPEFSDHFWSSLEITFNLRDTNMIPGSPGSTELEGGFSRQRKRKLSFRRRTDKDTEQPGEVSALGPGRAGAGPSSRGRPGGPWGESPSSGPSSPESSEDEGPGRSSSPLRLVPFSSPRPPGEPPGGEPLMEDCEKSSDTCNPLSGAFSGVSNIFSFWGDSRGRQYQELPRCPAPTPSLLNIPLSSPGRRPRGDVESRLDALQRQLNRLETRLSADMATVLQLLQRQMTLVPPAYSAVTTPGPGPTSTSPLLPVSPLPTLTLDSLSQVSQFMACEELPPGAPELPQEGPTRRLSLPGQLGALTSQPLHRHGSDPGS

CCCCCCCC[N+](CCCCCCCC)(CCCCCCCC)CCCCCCCC [TB, tetra-n-octylammonium bromide]
IC50: 4 nM
